Laboratory results reported in patent publication US8067424B2, “Selective inhibitors for cyclin-dependent kinases” (Emory University, priority 2007, dated 2011).
Read-outs that look alike come from different tables or passages of the source.

Assays:
[1] = biological target: IGF-1R (Homo sapiens, UniProt P08069); assay: Kinase screen: IGF-1R assay; format: biochemical; conditions: 10 micromolar compound; for remaining activity at 10 µM: read-out: mean activity remaining (as a percentage of the original activity), IGF1-R
IGF-1R, sequence (P08069 31-1367, species assumed): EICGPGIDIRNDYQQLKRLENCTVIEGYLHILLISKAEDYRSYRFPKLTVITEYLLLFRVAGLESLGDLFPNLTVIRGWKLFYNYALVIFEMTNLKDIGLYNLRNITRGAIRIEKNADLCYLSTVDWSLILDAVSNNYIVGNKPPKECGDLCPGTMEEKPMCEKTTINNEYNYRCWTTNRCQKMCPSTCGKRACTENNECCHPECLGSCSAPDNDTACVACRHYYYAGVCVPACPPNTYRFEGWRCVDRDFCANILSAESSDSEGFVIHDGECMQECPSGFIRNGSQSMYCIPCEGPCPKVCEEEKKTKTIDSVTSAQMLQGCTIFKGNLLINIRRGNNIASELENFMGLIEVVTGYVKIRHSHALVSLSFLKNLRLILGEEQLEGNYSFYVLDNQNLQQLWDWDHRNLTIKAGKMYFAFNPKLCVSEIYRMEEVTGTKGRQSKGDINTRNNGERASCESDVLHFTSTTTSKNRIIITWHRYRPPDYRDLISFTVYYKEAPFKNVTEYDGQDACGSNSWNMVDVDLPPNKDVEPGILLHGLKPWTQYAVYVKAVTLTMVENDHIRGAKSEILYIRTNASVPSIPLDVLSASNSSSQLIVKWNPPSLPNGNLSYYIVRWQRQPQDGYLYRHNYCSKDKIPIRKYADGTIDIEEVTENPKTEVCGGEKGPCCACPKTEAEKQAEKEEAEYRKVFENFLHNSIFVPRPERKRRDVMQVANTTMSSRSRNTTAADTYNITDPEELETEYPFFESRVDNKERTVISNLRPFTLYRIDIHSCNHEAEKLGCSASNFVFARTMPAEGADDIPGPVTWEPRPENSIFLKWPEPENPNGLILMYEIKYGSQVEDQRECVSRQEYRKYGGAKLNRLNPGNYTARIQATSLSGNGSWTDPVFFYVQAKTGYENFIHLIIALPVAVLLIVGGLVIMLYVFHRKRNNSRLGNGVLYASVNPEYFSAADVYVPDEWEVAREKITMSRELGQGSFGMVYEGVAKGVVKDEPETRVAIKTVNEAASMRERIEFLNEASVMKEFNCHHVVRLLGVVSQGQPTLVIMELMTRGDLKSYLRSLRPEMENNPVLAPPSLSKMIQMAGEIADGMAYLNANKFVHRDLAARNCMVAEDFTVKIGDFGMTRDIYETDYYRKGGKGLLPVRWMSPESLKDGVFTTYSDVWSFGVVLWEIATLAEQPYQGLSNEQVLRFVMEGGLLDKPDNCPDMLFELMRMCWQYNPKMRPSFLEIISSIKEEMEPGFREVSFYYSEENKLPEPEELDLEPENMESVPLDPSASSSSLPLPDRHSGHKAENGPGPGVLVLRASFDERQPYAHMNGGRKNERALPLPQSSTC
Experimental: Generally, the same procedure was used for all assays. Since the total assay volume was 25.5 microliters, 0.5 microliters of inhibitors at 51× assay concentration were added to the plates before any other addition.
The basic procedure was to add 0.5 microliters inhibitor/control in DMSO to plate. Fifteen microliters of enzyme/substrate/buffer mix were added and incubated for 5 min. Ten microliters MgATP at the relevant concentration were added and incubated for 30 min. The assay was stopped by adding 5 microliters of 3% orthophosphoric acid. The assay was transferred to a p81 filter plate and read in a scintillation counter of 30 sec/well. Note that this assay procedure was not followed for MKK1, which instead involved a two-step assay, and PKC alpha, which required the addition of lipid vesicles.
IGF-1R assay: IGF-1R (5-20 mU diluted in 50 mM Tris pH 7.5, 0.1 mM EGTA, 1 mg/ml BSA) was assayed against a substrate peptide ([…]) (SEQ ID NO: in a final volume of 25.5 μl containing 50 mM Tris pH 7.5, 300 μM substrate peptide, 10 mM magnesium acetate and 0.005 mM [33P-g-ATP] (50-1000 cpm/pmole) and incubated for 30 min at room temperature. Assays were stopped by addition of 5 μl of 0.5 M (3%) orthophosphoric acid and then harvested onto P81 Unifilter plates with a wash buffer of 50 mM orthophosphoric acid.

[2] = biological target: T1, CDK2/cyclin A complex (Homo sapiens, UniProt P24941); assay: CDK2/cyclin A kinase assay (as for CDK7); format: biochemical; conditions: for remaining activity at 0.1 µM: 100 nM, mean of three (standard deviation), read-out: CDK2 % remaining kinase activity after incubation with 100 nM of compound; for IC50: Table 7, mean of three experiments, read-out: CDK2 kinase inhibition in vitro (IC50)
T1 construct: purchased Proqinase GmbH, Germany
Summary of the method: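 Run as the CDK7 protocol with 50 ng CDK2/cyclin A or 100 ng CDK9/cyclin T; compound 30 min at 30 °C, then 2 μM ATP final for 20 min at 30 °C. ATP depletion by luciferase luminescence (PKLight), triplicate, normalised to no-enzyme and enzyme controls.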

[3] = biological target: T2, CDK7 complex (CDK7, Cyclin H, MAT1) (Homo sapiens, UniProt P50613); assay: CDK7/CycH/MAT1 trimeric complex kinase assay (PKLight luciferase); format: biochemical; conditions: 100 nM; mean of three (standard deviation); read-out: CDK7 % remaining kinase activity after incubation with 100 nM of compound
T2 construct: purchased Proqinase GmbH, Germany
T2 sequence (P50613 whole entry): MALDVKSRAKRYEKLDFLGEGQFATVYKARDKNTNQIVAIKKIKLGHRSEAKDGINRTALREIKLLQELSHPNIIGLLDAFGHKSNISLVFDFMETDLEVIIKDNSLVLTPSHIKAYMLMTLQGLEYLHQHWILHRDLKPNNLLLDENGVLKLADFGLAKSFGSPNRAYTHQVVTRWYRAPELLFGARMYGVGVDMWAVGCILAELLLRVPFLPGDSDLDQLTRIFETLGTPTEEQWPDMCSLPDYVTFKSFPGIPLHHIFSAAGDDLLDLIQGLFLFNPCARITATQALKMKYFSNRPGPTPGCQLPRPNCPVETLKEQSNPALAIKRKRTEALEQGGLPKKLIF
T2 sequence (P51946 whole entry partner): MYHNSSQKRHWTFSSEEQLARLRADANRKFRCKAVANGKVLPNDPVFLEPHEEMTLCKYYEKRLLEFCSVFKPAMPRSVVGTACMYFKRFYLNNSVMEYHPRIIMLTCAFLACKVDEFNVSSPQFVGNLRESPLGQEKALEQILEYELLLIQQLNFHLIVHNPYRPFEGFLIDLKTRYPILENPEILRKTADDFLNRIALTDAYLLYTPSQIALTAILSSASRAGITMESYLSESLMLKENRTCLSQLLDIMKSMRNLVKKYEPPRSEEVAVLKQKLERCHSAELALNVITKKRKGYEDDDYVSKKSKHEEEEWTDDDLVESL
T2 sequence (P51948 whole entry partner): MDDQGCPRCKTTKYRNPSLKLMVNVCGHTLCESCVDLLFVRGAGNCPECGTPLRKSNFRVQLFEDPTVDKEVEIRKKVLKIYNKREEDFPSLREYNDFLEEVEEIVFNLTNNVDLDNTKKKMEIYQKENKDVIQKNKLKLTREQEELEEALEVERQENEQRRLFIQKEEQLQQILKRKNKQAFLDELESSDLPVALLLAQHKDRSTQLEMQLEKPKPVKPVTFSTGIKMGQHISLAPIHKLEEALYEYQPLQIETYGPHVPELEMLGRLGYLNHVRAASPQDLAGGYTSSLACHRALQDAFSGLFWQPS
Summary of the method: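 Compound was preincubated with the kinase for 30 min at 30 °C; the reaction then ran for 20 min at 30 °C with 2 μM ATP final. Remaining ATP was measured by PKLight luciferase luminescence at 560 nm. Values were corrected against the no-enzyme control and expressed relative to enzyme-only activity (100%), in triplicate.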

[4] = tested on: SNB-19
[5] = tested on: OVCAR-8; assay: cells; conditions: Homo sapiens
[6] = tested on: T-47D; assay: cells; conditions: Homo sapiens, T47D
[7] = tested on: SK-MEL-28; assay: cells; conditions: Homo sapiens
[8] = tested on: A549/ATCC; assay: cells; conditions: Homo sapiens
[9] = tested on: MCF7; assay: cells; conditions: Homo sapiens
[10] = tested on: NCI/ADR-RES; conditions: for Mean Optical Densities / Percent Growth: NCI/ADR-RES
[11] = tested on: HOP-92
[12] = tested on: LOX IMVI; assay: cells; conditions: Homo sapiens
[13] = tested on: SK-MEL-2
[14] = SNB-19, log10 concentration −4.0
[15] = SNB-19, log10 concentration −5.0
[16] = SNB-19, log10 concentration −6.0
[17] = SNB-19, log10 concentration −7.0
[18] = SNB-19, log10 concentration −8.0
[19] = HOP-92, log10 concentration −4.0
[20] = HOP-92, log10 concentration −5.0
[21] = HOP-92, log10 concentration −6.0
[22] = HOP-92, log10 concentration −7.0
[23] = HOP-92, log10 concentration −8.0
[24] = SK-MEL-2, log10 concentration −4.0
[25] = SK-MEL-2, log10 concentration −5.0
[26] = SK-MEL-2, log10 concentration −6.0
[27] = SK-MEL-2, log10 concentration −7.0
[28] = SK-MEL-2, log10 concentration −8.0

CC(C)c1cnn2c(NCc3ccccc3F)cc(NCCCCCN)nc12 [ICEC-0232]
mean activity remaining (as a percentage of the original activity), IGF1-R [1]: 17%

CC[C@H](CO)Nc1cc(NCc2ccccc2)n2ncc(C(C)C)c2n1 [ICEC0067]
remaining activity at 0.1 µM [2]: 100% | IC50 [2]: > 1000 nM | remaining activity at 0.1 µM [3]: 49% | remaining activity at 10 µM [1]: 63%

C=C[C@H](CO)Nc1cc(NCc2ccccc2)n2ncc(C(C)C)c2n1 [ICEC0065]
remaining activity at 0.1 µM [2]: 95% | IC50 [2]: > 1000 nM | remaining activity at 0.1 µM [3]: 80% | remaining activity at 10 µM [1]: 63%

CC(C)c1cnn2c(NCc3ccccc3)cc(N[C@@H](CO)[C@H](O)CO)nc12 [ICEC0318, (3S)-3-(7-(Benzylamino)-3-isopropylpyrazolo[1,5-a]pyrimidin-5-ylamino)butane-1,2,4-triol]
TGI ([4]; SNB-19 (CNS Cancer)): 4.89E−5 | Mean Optical Densities [4, 14]: 0.492 | Percent Growth [4, 14]: −2% | Mean Optical Densities [4, 15]: 0.537 | Percent Growth [4, 15]: 4% | Mean Optical Densities [4, 16]: 0.580 | Percent Growth [4, 16]: 9% | Mean Optical Densities [4, 17]: 1.247 | Percent Growth [4, 17]: 84% | Mean Optical Densities [4, 18]: 1.309 | Percent Growth [4, 18]: 91% | GI50 ([5]; OVCAR-8): 340 nM | CC50 ([5]; OVCAR-8, read-out: LC50): > 100000 nM | GI50 [6]: 305 nM | CC50 ([6]; read-out: LC50): > 100000 nM | GI50 ([7]; SK-MEL-28): 245 nM | CC50 ([7]; SK-MEL-28, read-out: LC50): 37100 nM | GI50 ([8]; A549): 338 nM | CC50 ([8]; A549, read-out: LC50): > 100000 nM | GI50 ([9]; MCF7): 221 nM | CC50 ([9]; MCF7, read-out: LC50): > 100000 nM | TGI ([10]; NCI/ADR-RES (Breast Cancer)): >1.00E−4 | Mean Optical Densities ([10]; log10 concentration −4.0): 0.531 | Percent Growth ([10]; log10 concentration −4.0): 10% | Mean Optical Densities ([10]; log10 concentration −5.0): 0.657 | Percent Growth ([10]; log10 concentration −5.0): 22% | Mean Optical Densities ([10]; log10 concentration −6.0): 1.107 | Percent Growth ([10]; log10 concentration −6.0): 63% | Mean Optical Densities ([10]; log10 concentration −7.0): 1.638 | Percent Growth ([10]; log10 concentration −7.0): 111% | Mean Optical Densities ([10]; log10 concentration −8.0): 1.587 | Percent Growth ([10]; log10 concentration −8.0): 107% | TGI ([11]; HOP-92 (Non-Small Cell Lung Cancer)): >1.00E−4 | Mean Optical Densities [11, 19]: 0.594 | Percent Growth [11, 19]: 12% | Mean Optical Densities [11, 20]: 0.612 | Percent Growth [11, 20]: 16% | Mean Optical Densities [11, 21]: 0.645 | Percent Growth [11, 21]: 22% | Mean Optical Densities [11, 22]: 0.981 | Percent Growth [11, 22]: 86% | Mean Optical Densities [11, 23]: 1.050 | Percent Growth [11, 23]: 99% | GI50 [12]: 171 nM | CC50 ([12]; read-out: LC50): > 100000 nM | TGI ([13]; SK-MEL-2 (Melanoma)): 8.22E−5 | Mean Optical Densities [13, 24]: 1.061 | Percent Growth [13, 24]: −1% | Mean Optical Densities [13, 25]: 1.218 | Percent Growth [13, 25]: 12% | Mean Optical Densities [13, 26]: 1.290 | Percent Growth [13, 26]: 18% | Mean Optical Densities [13, 27]: 2.275 | Percent Growth [13, 27]: 99% | Mean Optical Densities [13, 28]: 2.282 | Percent Growth [13, 28]: 100% | remaining activity at 10 µM [1]: 67%
